Measured values as given in the supplement of paper PMC11208160.

Test: recombinant barcode read abundance after kanamycin selection (control-corrected) (log10(CPM+1)); higher = more efficient recombination; sequences stand for … in AGTGCAGAGAAAATCGGCCAGTTTTCTCTGCCTGCAGTCCGCATGCCGT…ATTTATGCAGCGGACTGCCTTTCTCCCAAAGTGATAAACCGGACAGTATCATGGACCGGTTTTCCCGGTAATCCGTATTTGCAAGGTTGGTTTCACT; site = the 11-nt target
Outline: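 For this pooled screen, each oligo contained a promoter, a target, a barcode and the J23119-driven first 104 bases of the bridge RNA. Gibson cloning placed it into a vector supplying the remaining 73 bp and a T7-inducible recombinase, and the pool was co-electroporated into E. coli with a donor plasmid. Recombination efficiency is derived from barcode counts per million at recombinant junctions after averaging and control correction, and is expressed on a log scale as log10(CPM+1), with selection on chloramphenicol/ampicillin/kanamycin plus 0.1 mM IPTG against a chloramphenicol/ampicillin LB agar control.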

Sequence | recombinant barcode read abundance (log10)
TAAGAATCTTGGGTTCTAACCTGTTGCCTGG [TAAGAATCTAG_LTGcore_CT_RTGcore_CC] (site TAAGAATCTAG) (LTG core: CT, RTG core: CC) | 0.39
TAAGAATCTTGGGTTCTAACCTGTTGCCTTG [TAAGAATCTAG_LTGcore_CT_RTGcore_CA] (site TAAGAATCTAG) (LTG core: CT, RTG core: CA) | 0.89
TAAGAATGTTGGGTTCTAACCTGTTGCCTAC [TAAGAATCTAG_LTGcore_GT_RTGcore_GT] (site TAAGAATCTAG) (LTG core: GT, RTG core: GT) | 0.128
TAAGAATGTTGGGTTCTAACCTGTTGCCTAG [TAAGAATCTAG_LTGcore_GT_RTGcore_CT] (site TAAGAATCTAG) (LTG core: GT, RTG core: CT) | 0.127
TAAGAATTATGGGTTCTAACCTGTTGCCTTA [TAAGAATCTAG_LTGcore_TA_RTGcore_TA] (site TAAGAATCTAG) (LTG core: TA, RTG core: TA) | 0.111
TAGAGGGAGTGGGTTCTAACCTGTTGCGGAG [TAGAGGGCTCC_LTGcore_AG_RTGcore_CT] (site TAGAGGGCTCC) (LTG core: AG, RTG core: CT) | 0.0663
TAGAGGGAGTGGGTTCTAACCTGTTGCGGCT [TAGAGGGCTCC_LTGcore_AG_RTGcore_AG] (site TAGAGGGCTCC) (LTG core: AG, RTG core: AG) | 0.0923
TAGAGGGCATGGGTTCTAACCTGTTGCGGAG [TAGAGGGCTCC_LTGcore_CA_RTGcore_CT] (site TAGAGGGCTCC) (LTG core: CA, RTG core: CT) | 2.42
TAGAGGGCCTGGGTTCTAACCTGTTGCGGGG [TAGAGGGCTCC_LTGcore_CC_RTGcore_CC] (site TAGAGGGCTCC) (LTG core: CC, RTG core: CC) | 0.132
TAGAGGGCGTGGGTTCTAACCTGTTGCGGCG [TAGAGGGCTCC_LTGcore_CG_RTGcore_CG] (site TAGAGGGCTCC) (LTG core: CG, RTG core: CG) | 0.0165
TAGAGGGCTTGGGTTCTAACCTGTTGCGGAA [TAGAGGGCTCC_LTGcore_CT_RTGcore_TT] (site TAGAGGGCTCC) (LTG core: CT, RTG core: TT) | 0.746
TAGAGGGCTTGGGTTCTAACCTGTTGCGGAC [TAGAGGGCTCC_LTGcore_CT_RTGcore_GT] (site TAGAGGGCTCC) (LTG core: CT, RTG core: GT) | 1.38
TAGAGGGCTTGGGTTCTAACCTGTTGCGGCT [TAGAGGGCTCC_LTGcore_CT_RTGcore_AG] (site TAGAGGGCTCC) (LTG core: CT, RTG core: AG) | 0.623
TAGAGGGCTTGGGTTCTAACCTGTTGCGGTG [TAGAGGGCTCC_LTGcore_CT_RTGcore_CA] (site TAGAGGGCTCC) (LTG core: CT, RTG core: CA) | 0.438
TAGAGGGGGTGGGTTCTAACCTGTTGCGGAG [TAGAGGGCTCC_LTGcore_GG_RTGcore_CT] (site TAGAGGGCTCC) (LTG core: GG, RTG core: CT) | 0.0671
TAGAGGGGGTGGGTTCTAACCTGTTGCGGCC [TAGAGGGCTCC_LTGcore_GG_RTGcore_GG] (site TAGAGGGCTCC) (LTG core: GG, RTG core: GG) | 0.114
TAGAGGGTCTGGGTTCTAACCTGTTGCGGGA [TAGAGGGCTCC_LTGcore_TC_RTGcore_TC] (site TAGAGGGCTCC) (LTG core: TC, RTG core: TC) | 0.0922
TAGAGGGTGTGGGTTCTAACCTGTTGCGGAG [TAGAGGGCTCC_LTGcore_TG_RTGcore_CT] (site TAGAGGGCTCC) (LTG core: TG, RTG core: CT) | 0.173
TAGAGGGTTTGGGTTCTAACCTGTTGCGGAA [TAGAGGGCTCC_LTGcore_TT_RTGcore_TT] (site TAGAGGGCTCC) (LTG core: TT, RTG core: TT) | 0.0961
TAGAGGGTTTGGGTTCTAACCTGTTGCGGAG [TAGAGGGCTCC_LTGcore_TT_RTGcore_CT] (site TAGAGGGCTCC) (LTG core: TT, RTG core: CT) | 0.949
TCGCGACAATGGGTTCTAACCTGTTGCCGAG [TCGCGACCTCG_LTGcore_AA_RTGcore_CT] (site TCGCGACCTCG) (LTG core: AA, RTG core: CT) | 0.0505
TCGCGACAATGGGTTCTAACCTGTTGCCGTT [TCGCGACCTCG_LTGcore_AA_RTGcore_AA] (site TCGCGACCTCG) (LTG core: AA, RTG core: AA) | 0.176

Sequence | recombinant barcode read abundance (log10)
TCGCGACACTGGGTTCTAACCTGTTGCCGAG [TCGCGACCTCG_LTGcore_AC_RTGcore_CT] (site TCGCGACCTCG) (LTG core: AC, RTG core: CT) | 0.0715
TCGCGACCGTGGGTTCTAACCTGTTGCCGAG [TCGCGACCTCG_LTGcore_CG_RTGcore_CT] (site TCGCGACCTCG) (LTG core: CG, RTG core: CT) | 0.392
TCGCGACCTTGGGTTCTAACCTGTTGCCGAT [TCGCGACCTCG_LTGcore_CT_RTGcore_AT] (site TCGCGACCTCG) (LTG core: CT, RTG core: AT) | 0.514
TCGCGACCTTGGGTTCTAACCTGTTGCCGCA [TCGCGACCTCG_LTGcore_CT_RTGcore_TG] (site TCGCGACCTCG) (LTG core: CT, RTG core: TG) | 0.072
TCGCGACCTTGGGTTCTAACCTGTTGCCGCT [TCGCGACCTCG_LTGcore_CT_RTGcore_AG] (site TCGCGACCTCG) (LTG core: CT, RTG core: AG) | 0.0581
TCGCGACCTTGGGTTCTAACCTGTTGCCGGG [TCGCGACCTCG_LTGcore_CT_RTGcore_CC] (site TCGCGACCTCG) (LTG core: CT, RTG core: CC) | 0.283
TCGCGACCTTGGGTTCTAACCTGTTGCCGGT [TCGCGACCTCG_LTGcore_CT_RTGcore_AC] (site TCGCGACCTCG) (LTG core: CT, RTG core: AC) | 0.129
TCGCGACCTTGGGTTCTAACCTGTTGCCGTC [TCGCGACCTCG_LTGcore_CT_RTGcore_GA] (site TCGCGACCTCG) (LTG core: CT, RTG core: GA) | 0.204
TCGCGACGATGGGTTCTAACCTGTTGCCGAG [TCGCGACCTCG_LTGcore_GA_RTGcore_CT] (site TCGCGACCTCG) (LTG core: GA, RTG core: CT) | 0.241
TCGCGACGATGGGTTCTAACCTGTTGCCGTC [TCGCGACCTCG_LTGcore_GA_RTGcore_GA] (site TCGCGACCTCG) (LTG core: GA, RTG core: GA) | 0.123
TCGCGACGCTGGGTTCTAACCTGTTGCCGAG [TCGCGACCTCG_LTGcore_GC_RTGcore_CT] (site TCGCGACCTCG) (LTG core: GC, RTG core: CT) | 0.235
TCGCGACGTTGGGTTCTAACCTGTTGCCGAC [TCGCGACCTCG_LTGcore_GT_RTGcore_GT] (site TCGCGACCTCG) (LTG core: GT, RTG core: GT) | 0.0448
TCGCGACTATGGGTTCTAACCTGTTGCCGAG [TCGCGACCTCG_LTGcore_TA_RTGcore_CT] (site TCGCGACCTCG) (LTG core: TA, RTG core: CT) | 0.0865
TCGCGACTGTGGGTTCTAACCTGTTGCCGCA [TCGCGACCTCG_LTGcore_TG_RTGcore_TG] (site TCGCGACCTCG) (LTG core: TG, RTG core: TG) | 0.419
TCTACCCAATGGGTTCTAACCTGTTGCTGTT [TCTACCCCTCA_LTGcore_AA_RTGcore_AA] (site TCTACCCCTCA) (LTG core: AA, RTG core: AA) | 0.186
TCTACCCATTGGGTTCTAACCTGTTGCTGAG [TCTACCCCTCA_LTGcore_AT_RTGcore_CT] (site TCTACCCCTCA) (LTG core: AT, RTG core: CT) | 0.331
TCTACCCCATGGGTTCTAACCTGTTGCTGTG [TCTACCCCTCA_LTGcore_CA_RTGcore_CA] (site TCTACCCCTCA) (LTG core: CA, RTG core: CA) | 0.0357
TCTACCCCGTGGGTTCTAACCTGTTGCTGAG [TCTACCCCTCA_LTGcore_CG_RTGcore_CT] (site TCTACCCCTCA) (LTG core: CG, RTG core: CT) | 0.0746
TCTACCCCGTGGGTTCTAACCTGTTGCTGCG [TCTACCCCTCA_LTGcore_CG_RTGcore_CG] (site TCTACCCCTCA) (LTG core: CG, RTG core: CG) | 0.0225
TCTACCCCTTGGGTTCTAACCTGTTGCTGAC [TCTACCCCTCA_LTGcore_CT_RTGcore_GT] (site TCTACCCCTCA) (LTG core: CT, RTG core: GT) | 0.169
TCTACCCCTTGGGTTCTAACCTGTTGCTGCG [TCTACCCCTCA_LTGcore_CT_RTGcore_CG] (site TCTACCCCTCA) (LTG core: CT, RTG core: CG) | 0.0367
